Test results from US7115749B2, “Substituted 5-oxo pyrazoles and [1,2,4]triazoles as antiviral agents” (priority 2004, dated 2006).

Biological target: HCV RNA-dependent RNA polymerase NS5B (Δ21) (Hepatitis C virus genotype 1b, UniProt P26663)
Test: Assay for HCV RNA-dependent RNA polymerase activity (SPA, [3H]-GTP incorporation)
Assay type: biochemical
Protocol: Assay for HCV RNA-dependent RNA Polymerase Activity
Inhibitory activity of the present compounds against HCV RNA-dependent RNA polymerase was assayed according to the methods disclosed in U.S. Patent Application U.S.2004/038993, content of which is incorporated herein by reference; and those described in Ferrari, E.; Wright-Minogue, J.; Fang, J. W. S.; Baroudy, B. M.; Lau, J. Y. N.; Hong, Z. J. Virol. 1999, 73, 1649.
Briefly, 50 μl reactions containing 20 mM HEPES (pH 7.3), 7.5 mM DTT, 20 units/ml RNasIN, 0.5 ug/ml biotinylated oligoG12, 5 μg/ml polyC, 5 μM GTP, 20 μCi/ml [^3H]-GTP, 10 mM MgCl2, 60 mM NaCl, 100 μg/ml BSA, and 50 nM NS5B (Δ21) were incubated at room temperature for three hours in 96-well plates with or without test compounds. Assay was terminated by the addition of 50 μl 10 mg/ml streptavidin-coated SPA beads supplemented with 100 mM EDTA, and the incorporation of labeled GTP determined by a TopCount Scintillation Counter. IC50 values were calculated from single experiments using 11 serial 2-fold dilutions (0.05–50 μM), and data were considered reliable only when the IC50 value of a positive internal control was within standard deviation range.

Sequence of HCV RNA-dependent RNA polymerase NS5B (Δ21) (P26663 2420-2989, stated change not applied): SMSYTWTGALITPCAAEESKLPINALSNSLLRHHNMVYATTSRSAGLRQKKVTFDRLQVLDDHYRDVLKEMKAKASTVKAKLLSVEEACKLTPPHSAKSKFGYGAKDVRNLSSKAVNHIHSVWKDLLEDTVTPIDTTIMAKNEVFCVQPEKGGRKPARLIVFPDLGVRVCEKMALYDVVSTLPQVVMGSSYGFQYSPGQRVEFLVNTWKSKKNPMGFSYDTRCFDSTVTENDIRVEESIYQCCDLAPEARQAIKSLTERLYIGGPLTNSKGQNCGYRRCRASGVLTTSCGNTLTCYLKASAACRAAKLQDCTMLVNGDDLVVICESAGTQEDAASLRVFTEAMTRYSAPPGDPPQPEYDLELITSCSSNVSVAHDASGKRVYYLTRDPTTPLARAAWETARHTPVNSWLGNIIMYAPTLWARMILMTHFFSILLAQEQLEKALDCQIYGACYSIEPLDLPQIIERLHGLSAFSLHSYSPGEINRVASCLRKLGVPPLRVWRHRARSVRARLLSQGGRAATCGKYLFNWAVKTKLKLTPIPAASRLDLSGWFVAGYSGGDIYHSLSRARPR

| Structure (SMILES) | IC50 |
| --- | --- |
| O=C(Cn1nc(C(=O)O)cc1OCc1ccccc1)N[C@H]1CCCC[C@@H]1OCc1ccccc1 [Compound 1] | 43 µM |
| CCOc1ccccc1COc1cc(C(=O)O)nn1CC(=O)N[C@H]1CCCC[C@@H]1OCc1ccccc1 [Compound 2] | 1 µM |
| O=C(Cn1nc(C(=O)O)cc1OCc1ccccc1-c1ccccc1)N[C@H]1CCCC[C@@H]1OCc1ccccc1 [Compound 3] | 1 µM |
| O=C(Cn1nc(C(=O)O)cc1OCc1ccccc1CS(=O)(=O)c1ccccc1)N[C@H]1CCCC[C@@H]1OCc1ccccc1 [Compound 4] | 32 µM |
| O=C(Cn1nc(C(=O)O)cc1OCc1ccccc1)Nc1ccccc1OCc1ccccc1 [Compound 5] | 11 µM |
| CCOc1ccccc1COc1cc(C(=O)O)nn1CC(=O)Nc1ccccc1OCc1ccccc1 [Compound 6] | 40 µM |
| O=C(Cn1nc(C(=O)O)cc1OCc1ccccc1-c1ccccc1)Nc1ccccc1OCc1ccccc1 [Compound 7] | 11 µM |
| O=C(Cn1nc(C(=O)O)cc1OCc1ccccc1CS(=O)(=O)c1ccccc1)Nc1ccccc1OCc1ccccc1 [Compound 8] | 0.8 µM |
| O=C(Cn1nc(C(=O)O)cc1OCc1ccccc1-c1ccc(Cl)cc1)N[C@H]1CCCC[C@@H]1OCc1ccccc1 [Compound 10] | 0.064 µM |
| O=C(Cn1nc(C(=O)O)cc1OCc1cc(F)cc(C(F)(F)F)c1)N[C@H]1CCCC[C@@H]1OCc1ccccc1 [Compound 11, 1-[((1S, 2S)-2-Benzyloxy-cyclohexylcarbamoyl)-methyl]-5-(3-fluoro-5-trifluoromethyl-benzyloxy)-1H-pyrazole-3-carboxylic acid] | 1.8 µM |
| O=C(Cn1nc(C(=O)O)cc1OCc1cc(Cl)ccc1Cl)N[C@H]1CCCC[C@@H]1OCc1ccccc1 [Compound 12] | 3.9 µM |
| O=C(Cn1nc(C(=O)O)cc1OCc1ccccc1Cl)N[C@H]1CCCC[C@@H]1OCc1ccccc1 [Compound 13] | > 12.5 µM |
| O=C(Cn1nc(C(=O)O)cc1OCc1ccccc1F)N[C@H]1CCCC[C@@H]1OCc1ccccc1 [Compound 14] | > 12.5 µM |
| O=C(Cn1nc(C(=O)O)cc1OCc1ccc(Cl)cc1)N[C@H]1CCCC[C@@H]1OCc1ccccc1 [Compound 15] | 2.4 µM |
| Cc1cccc(COc2cc(C(=O)O)nn2CC(=O)N[C@H]2CCCC[C@@H]2OCc2ccccc2)c1F [Compound 16] | 8.4 µM |
| O=C(Cn1nc(C(=O)O)cc1OCc1ccc(F)cc1Cl)N[C@H]1CCCC[C@@H]1OCc1ccccc1 [Compound 17] | 9.5 µM |
| O=C(Cn1nc(C(=O)O)cc1OCc1cccc(C(F)(F)F)c1)N[C@H]1CCCC[C@@H]1OCc1ccccc1 [Compound 18] | 2.1 µM |
| O=C(Cn1nc(C(=O)O)cc1OCc1ccc(C(F)(F)F)cc1)N[C@H]1CCCC[C@@H]1OCc1ccccc1 [Compound 19] | 0.62 µM |
| O=C(Cn1nc(C(=O)O)cc1OCc1ccccc1C(F)(F)F)N[C@H]1CCCC[C@@H]1OCc1ccccc1 [Compound 20] | 2.9 µM |
| O=C(Cn1nc(C(=O)O)cc1OCc1ccc(F)cc1)N[C@H]1CCCC[C@@H]1OCc1ccccc1 [Compound 21] | 13 µM |
| Cc1ccc(COc2cc(C(=O)O)nn2CC(=O)N[C@H]2CCCC[C@@H]2OCc2ccccc2)cc1F [Compound 22] | 3 µM |
| O=C(Cn1nc(C(=O)O)cc1OCc1cc(F)cc(F)c1)N[C@H]1CCCC[C@@H]1OCc1ccccc1 [Compound 23] | 12 µM |
| O=C(Cn1nc(C(=O)O)cc1OCc1cccc(F)c1F)N[C@H]1CCCC[C@@H]1OCc1ccccc1 [Compound 24] | > 12.5 µM |
| O=C(Cn1nc(C(=O)O)cc1OCc1ccc(F)c(F)c1)N[C@H]1CCCC[C@@H]1OCc1ccccc1 [Compound 25] | 4.3 µM |
| O=C(Cn1nc(C(=O)O)cc1OCc1c(F)cccc1F)N[C@H]1CCCC[C@@H]1OCc1ccccc1 [Compound 26] | > 50 µM |

| Structure (SMILES) | IC50 |
| --- | --- |
| O=C(Cn1nc(C(=O)O)cc1OCc1cccc(Cl)c1)N[C@H]1CCCC[C@@H]1OCc1ccccc1 [Compound 27] | 8.6 µM |
| O=C(Cn1nc(C(=O)O)cc1OCc1cccc(F)c1)N[C@H]1CCCC[C@@H]1OCc1ccccc1 [Compound 28] | > 12.5 µM |
| O=C(Cn1nc(C(=O)O)cc1OCc1ccc(F)cc1F)N[C@H]1CCCC[C@@H]1OCc1ccccc1 [Compound 29] | > 12.5 µM |
| O=C(Cn1nc(C(=O)O)cc1OCc1cccc(C(F)(F)F)c1F)N[C@H]1CCCC[C@@H]1OCc1ccccc1 [Compound 30] | 2 µM |
| O=C(Cn1nc(C(=O)O)cc1OCc1ccc(F)c(C(F)(F)F)c1)N[C@H]1CCCC[C@@H]1OCc1ccccc1 [Compound 31] | 1.4 µM |
| O=C(Cn1nc(C(=O)O)cc1OCc1ccc(C(F)(F)F)c(F)c1)N[C@H]1CCCC[C@@H]1OCc1ccccc1 [Compound 32] | 0.28 µM |
| O=C(Cn1nc(C(=O)O)cc1OCc1cc(F)ccc1C(F)(F)F)N[C@H]1CCCC[C@@H]1OCc1ccccc1 [Compound 33] | 2.9 µM |
| O=C(Cn1nc(C(=O)O)cc1OCc1cc(C(F)(F)F)ccc1F)N[C@H]1CCCC[C@@H]1OCc1ccccc1 [Compound 34] | 6.1 µM |
| O=C(Cn1nc(C(=O)O)cc1OCc1cccc(Cl)c1F)N[C@H]1CCCC[C@@H]1OCc1ccccc1 [Compound 35] | 9.2 µM |
| O=C(Cn1nc(C(=O)O)cc1OCc1ccc(Cl)c(Cl)c1)N[C@H]1CCCC[C@@H]1OCc1ccccc1 [Compound 36] | 0.86 µM |
| O=C(Cn1nc(C(=O)O)cc1OCc1ccc(C(F)(F)F)cc1F)N[C@H]1CCCC[C@@H]1OCc1ccccc1 [Compound 37] | 6.2 µM |
| O=C(Cn1nc(C(=O)O)cc1OCc1ccc(F)cc1C(F)(F)F)N[C@H]1CCCC[C@@H]1OCc1ccccc1 [Compound 38] | 2.6 µM |
| O=C(Cn1nc(C(=O)O)cc1OCc1cccc(Oc2ccccc2F)c1)N[C@H]1CCCC[C@@H]1OCc1ccccc1 [Compound 39] | 2.2 µM |
| O=C(Cn1nc(C(=O)O)cc1OCc1cc(F)ccc1C(F)(F)F)N[C@H]1CCCC[C@@H]1OCc1ccccc1 [Compound 40] | 3.1 µM |
| O=C(Cn1nc(C(=O)O)cc1OCc1cc(Cl)ccc1F)N[C@H]1CCCC[C@@H]1OCc1ccccc1 [Compound 41] | 7.8 µM |
| O=C(Cn1nc(C(=O)O)cc1OCc1ccc(F)c(Cl)c1)N[C@H]1CCCC[C@@H]1OCc1ccccc1 [Compound 42] | 13 µM |
| Cc1cc(COc2cc(C(=O)O)nn2CC(=O)N[C@H]2CCCC[C@@H]2OCc2ccccc2)ccc1F [Compound 43] | 3.1 µM |
| O=C(Cn1nc(C(=O)O)cc1OCc1cccc(F)c1C(F)(F)F)N[C@H]1CCCC[C@@H]1OCc1ccccc1 [Compound 44] | 4.5 µM |
| O=C(Cn1nc(C(=O)O)cc1OCc1ccc2ccccc2c1)N[C@H]1CCCC[C@@H]1OCc1ccccc1 [Compound 45] | 6.8 µM |
| O=C(Cn1nc(C(=O)O)cc1OCc1cc(F)ccc1F)N[C@H]1CCCC[C@@H]1OCc1ccccc1 [Compound 46] | > 12.5 µM |
| COc1cccc(COc2cc(C(=O)O)nn2CC(=O)N[C@H]2CCCC[C@@H]2OCc2ccccc2)c1 [Compound 47] | > 50 µM |
| O=C(Cn1nc(C(=O)O)cc1OCc1cccc(C(=O)O)c1)N[C@H]1CCCC[C@@H]1OCc1ccccc1 [Compound 48] | > 50 µM |
| COc1cccc(-c2ccccc2COc2cc(C(=O)O)nn2CC(=O)N[C@H]2CCCC[C@@H]2OCc2ccccc2)c1 [Compound 49] | 3.6 µM |
| COc1ccc(-c2ccccc2COc2cc(C(=O)O)nn2CC(=O)N[C@H]2CCCC[C@@H]2OCc2ccccc2)cc1 [Compound 50, 1-[(2-benzyloxy-cyclohexylcarbamoyl)-methyl]-5-(4′-methoxy-biphenyl-2-ylmethoxy)-1H-pyrazole-3-carboxylic acid] | 0.38 µM |
